From US20140288182A1, “USE OF CARBAMIDE PEROXIDE INJECTION IN PREPARATION OF VIRUS INACTIVATION MEDICAMENTS FOR TREATING DISEASES” (Wuxi Zhaozhen Radiation Technology Co., Ltd., priority 2013, published 2014)

System: thoracic aorta blood vessel plaque
Assay: New-Zealand rabbit model of blood vessel plaque (CTA angiography and MR)
Type: in vivo
Procedure: The New-Zealand rabbit model of blood vessel plaque is a common animal experimental model. […] The blood vessel plaque was taken as the target region and positioned, and a radiotherapy plan was made. 1.5 h after intraperitoneal injection of 5-ALA (80 mg/kg body weight), the substrate was intravenously dripped, and the irradiation to the blood vessel plaque was performed once with 5 Gy. The New-Zealand rabbit was continually fed for 1 week.

NCC(=O)CCC(=O)O [5-ALA]
regression of thoracic aorta blood vessel plaque (CTA angiography and MR detection) (5-ALA 80 mg/kg intraperitoneal 1.5 h before, substrate intravenously dripped, plaque irradiated once with 5 Gy, examined on the seventh day after treatment): completely disappeared
plaque in the blood vessel of a rabbit by CT examination (FIG. 3) (photosensitizer given orally, irradiated with high energy X-ray, CT examination 5 days later): eliminated
